# Reference: paper PMC7582727, “Functional Impact of BeKm-1, a High-Affinity hERG Blocker, on Cardiomyocytes Derived from Human-Induced Pluripotent Stem Cells” (International Journal of Molecular Sciences, 2020)
# “Also recorded” adds a separate entry of the source. Positions of bridges follow the written chain, without caps; N, C: chain ends. Residues, ends and D or L forms follow the SMILES beside them.
# How the values were obtained:
# hiPS-CMs monolayer = test: Electric field potential of hiPS-CM monolayers (CardioExcyte96); type: cell-based, human
# Excerpt: The excitability abnormalities recorded on single hiPS-CM APs should translate into larger abnormalities when these cells are interacting with each other in monolayers. To assess this issue, we investigated the electrical excitability of hiPS-CM monolayers using the CardioExcyte96 system (Nanion). This system monitors both the electric field potential (EFP), which reflects the concerted electrical activity of the cell monolayer, and the impedance changes due to cell contractions, which will be described below. […] As saturating concentrations of BeKm-1 (100 nM) induced the arrest of spontaneous APs in individual cells, we were interested to see what may happen on a monolayer of hiPS-CMs.
# hiPS-CMs: All experiments were performed on the human-induced pluripotent stem cell (hiPSC) clone C2a that has been previously characterized, including cardiac differentiation and electrophysiology data. Cells were expanded on stem cell-qualified matrigel-coated plates (0.05 mg/mL; BD Bioscience, Le Pont de Claix, France) and cultured in StemMACS iPS-BREW XF medium (Miltenyi Biotec, Paris, France). Cells were passaged every […] using Gentle Cell Dissociation Buffer (StemCell Technologies, Grenoble, France). Prior to differentiation, cells were cultured as a monolayer in StemMACS iPS-brew supplemented with 1 × Y-27632 Rho-associated, coiled-coil containing protein kinase (ROCK) inhibitor (StemCell Technologies, Grenoble, France). When hiPSCs reached proper confluence, they were differentiated into cardiomyocytes using previously described « Matrix sandwich » protocol. At day 20 ± 1 of differentiation, beating cardiomyocytes were manually dissected and isolated from non-beating cells. Briefly, cardiomyocytes were washed with phosphate-buffered saline (PBS) and treated with TrypLE Express (10x) (Thermo Fisher Scientific, Illkirch-Graffenstaden, France) for 5 min at 37 °C. The enzyme was inactivated by adding RPMI1640 medium containing 20% (vol/vol) KnockOut Serum Replacement (KSR) (Thermo Fisher Scientific, Illkirch-Graffenstaden, France). […]
# The beating properties and the electrical field potentials of hiPS-CMs were evaluated with a CardioExcyte96 system. […] Meanwhile, cells were monitored to ensure the full stabilization of beating parameters until BeKm-1 was tested at various concentrations ([…]). Tfall and Trise were determined as the time between 10% and 90% of contraction or relaxation, respectively. Pulse width (PWx) was determined as the time corresponding to the width of the signal at 90% of relaxation. Electric field potentials (EFPs) were recorded using CardioExcyte96 system. For both contraction and EFPs, 10 sequences of 30 s of acquisition were analyzed before and after BeKm-1 addition. […]
# hiPS-CMs = test: Intracellular Ca^2+ transients in hiPS-CMs (Fluo-4, confocal); type: cell-based, human; conditions: 5 nM
# Description: As Ca^2+ influx abnormalities are likely to be at the root of electrophysiological disorders observed in the presence of BeKm-1, we sought to investigate the effects of this compound on hiPS-CM calcium dynamics. In order to test this, intracellular Ca^2+ transients (CaT) were monitored by confocal microscopy using the Fluo4 Ca^2+-sensitive dye in presence of 5 nM BeKm-1. […] The average interval was raised from 3.3 ± 1.7 sec (n = 8, vehicle) to 4.9 ± 2.2 sec (n = 8, 5 nM BeKm-1) (Figure S4C). In addition, we observed a reduction of CaT amplitude from 1.8 ± 0.2 (n = 8, vehicle) to 0.8 ± 0.2 (n = 8, 5 nM BeKm-1) (Figure S4D). […] The altered shape of the CaT was due to a slower time to peak (1.1 ± 0.1 s with vehicle vs. 2.2 ± 0.4 s with 5 nM BeKm-1, n = 8) (Figure S4E), possibly indicating a slower release from internal stores associated to a reduced entry by VGCC (largely due to the impact of RMP depolarization).
# hiPS-CMs: All experiments were performed on the human-induced pluripotent stem cell (hiPSC) clone C2a that has been previously characterized, including cardiac differentiation and electrophysiology data. Cells were expanded on stem cell-qualified matrigel-coated plates (0.05 mg/mL; BD Bioscience, Le Pont de Claix, France) and cultured in StemMACS iPS-BREW XF medium (Miltenyi Biotec, Paris, France). Cells were passaged every […] using Gentle Cell Dissociation Buffer (StemCell Technologies, Grenoble, France). Prior to differentiation, cells were cultured as a monolayer in StemMACS iPS-brew supplemented with 1 × Y-27632 Rho-associated, coiled-coil containing protein kinase (ROCK) inhibitor (StemCell Technologies, Grenoble, France). When hiPSCs reached proper confluence, they were differentiated into cardiomyocytes using previously described « Matrix sandwich » protocol. At day 20 ± 1 of differentiation, beating cardiomyocytes were manually dissected and isolated from non-beating cells. Briefly, cardiomyocytes were washed with phosphate-buffered saline (PBS) and treated with TrypLE Express (10x) (Thermo Fisher Scientific, Illkirch-Graffenstaden, France) for 5 min at 37 °C. The enzyme was inactivated by adding RPMI1640 medium containing 20% (vol/vol) KnockOut Serum Replacement (KSR) (Thermo Fisher Scientific, Illkirch-Graffenstaden, France). The supernatant was removed, and cells were suspended in RPMI1640 medium containing 20% (vol/vol) KSR and ROCK inhibitor. Then, the cells were plated on specific supports suitable for functional assessments.
# Calcium transients of hiPS-CMs were evaluated using the Fluo-4 reported dye and a Nikon A1R confocal microscope. Dissociated hiPS-CMs were plated and maintained on µ-slide 8-well IBIDI plates for 12 ± 1 days prior to experiments. On the day of the experiments, cells were loaded for 20 min with 3 µM Fluo-4 AM Ca^2+ indicator (Thermo Fisher Scientific, Illkirch-Graffenstaden, France) in culture medium at 37 °C. Then, to allow complete de-esterification of the Ca^2+ probe, the medium was replaced and cells were re-incubated at 37 °C for another 20 min. All recordings were performed in Tyrode’s solution, cells being placed at 37 °C in an experimental chamber. Confocal microscopy was performed using a Nikon A1R confocal inverted microscope (Nikon Corp, Tokyo, Japan) with a Nikon X60 Plan-Apo numerical aperture 1.4 oil-immersion objective (MicroPICell core facility). Fluo-4 AM was excited using the 488 nm line from an argon laser and fluorescence emission was measured at >505 nm. Images were acquired between 15.5 and 56.4 frames/s in X-Y mode, with a resolution of 1024 × 1024 pixels ([…]).
smiles,measurement,setting,value
"CC[C@H](C)[C@H](NC(=O)[C@H](CC(=O)O)NC(=O)[C@@H](NC(=O)[C@@H]1CCCN1C(=O)[C@@H](N)CCCNC(=N)N)[C@@H](C)O)C(=O)N[C@@H](CCCCN)C(=O)N[C@H]1CSSC[C@@H]2NC(=O)[C@H](CCCNC(=N)N)NC(=O)CNC(=O)[C@H](CC(N)=O)NC(=O)[C@H]([C@@H](C)O)NC(=O)[C@H](CCCCN)NC(=O)CNC(=O)[C@H](Cc3ccccc3)NC(=O)[C@H](CCCNC(=N)N)NC(=O)[C@H](CO)NC(=O)[C@H](CCCCN)NC(=O)[C@@H]3CSSC[C@@H](C(=O)N[C@@H](Cc4ccccc4)C(=O)O)NC(=O)[C@H](CC(=O)O)NC(=O)[C@H](CSSC[C@H](NC(=O)[C@H](CCC(N)=O)NC(=O)[C@H](Cc4ccc(O)cc4)NC(=O)[C@H](CO)NC(=O)[C@H](CCC(=O)O)NC(=O)[C@H](CO)NC1=O)C(=O)N[C@@H](Cc1ccccc1)C(=O)N1CCC[C@H]1C(=O)N[C@@H](C(C)C)C(=O)N3)NC(=O)[C@H](Cc1ccccc1)NC(=O)CNC(=O)[C@H](CC(N)=O)NC(=O)[C@H](C(C)C)NC2=O [BeKm-1] (H-RPTDIKCSESYQCFPVCKSRFGKTNGRCVNGFCDCF-OH; disulfide 7-28, 13-33, 17-35 (inferred); N-terminus and C-terminus assumed)",EFP duration,"hiPS-CMs monolayer; 2 nM, 37 °C, vehicle 2.8 ± 0.1 s, n = 5, mean ± SEM",3.4 ± 0.2 s
same,spontaneous depolarization in EFP,"hiPS-CMs monolayer; 2 nM, Figure 4A",presence of spontaneous depolarization
same,EFP arrhythmic waveforms,hiPS-CMs monolayer; 100 nM,"sustained waveforms of tachyarrhythmia, and TdP-like polymorphic waveforms; also recorded: increase in beats frequency and fibrillation-like pattern"
same,EFP frequency,"hiPS-CMs monolayer; 100 nM, 37 °C, vehicle 0.2 ± 0.1 Hz, n = 5, mean ± SEM, significant",0.7 ± 0.1 Hz
same,average interval between CaT,"hiPS-CMs; 37 °C, vehicle 3.3 ± 1.7 sec, n = 8, mean ± SEM",4.9 ± 2.2 s
same,CaT amplitude,"hiPS-CMs; F/F0 (Figure S4D), vehicle 1.8 ± 0.2, n = 8, mean ± SEM",0.8 ± 0.2
same,cytoplasmic Ca^2+ handling (integration of Ca^2+ signals),hiPS-CMs; Figure S4G,non-significant decrease
same,variability of CaT intervals,"hiPS-CMs; Poincaré plot, Figure S4B",great variability
same,kinetics of the CaT decay phase,"hiPS-CMs; tau of decay, Figure S4F",no alterations
same,CaT time to peak,"hiPS-CMs; vehicle 1.1 ± 0.1 s, n = 8, mean ± SEM",2.2 ± 0.4 s
